Measured values reported in patent US20240350430A1, “GROWTH INHIBITOR OF METASTATIC HUMAN PROSTATE CANCER CELLS” (Watanabe Oyster Laboratory Co., Ltd., priority 2021, published 2024).

System: DU-145 cells
Assay: Cell death of sub-confluent DU-145 cells (adherent cell counting)
Assay type: cell-based, human
Method: The PC-3 and DU-145 cells (1×10^5/in 1 ml of a culture fluid per hole using a 24-hole plate) were cultured in a DMEM culture fluid (containing 10% of FBS, 1% of P/S, and 1% of fungizone) under 5% of CO2, at 37° C., for three days, and when the cells reached sub-confluence, the culture fluid was exchanged for the one containing the DHMBA (0.01, 0.1, 1, 10, 100, or 1000 μM), and the cells were cultured for 24 and 48 hours. After the culture, the cells adhering to the bottom surface of the dish were removed and counted. In another experiment, after the culture for three days, when the cells reached sub-confluence, the culture fluid was exchanged for a culture fluid containing the DHMBA (1 or 10 μM) and a caspase-3 inhibitor (10 μM), and the cells were counted after the culture for 48 hours. Further, after the culture for three days, when the cells reached sub-confluence, the culture fluid was exchanged for a culture fluid obtained by adding gemcitabine (0.1, 1, 10, 50 or 100 nM) or CH223191 (1, 10, and 25 μM) to a DMEM culture fluid containing the DHMBA (1 or 10 μM) or not containing the DHMBA, and the cells were counted after the culture for 48 hours. […]

## COc1c(O)cc(CO)cc1O [DHMBA, 3,5-dihydroxy-4-methoxybenzyl alcohol]
DHMBA 1, 10, 100, or 1000 μM, 24 and 48 hours
  cell death: significantly increased
DHMBA 1 or 10 μM with caspase-3 inhibitor 10 μM, 48 hours
  increase of cell death in the presence of caspase-3 inhibitor: not caused
